# Activity calls are given as the source filed them.
# Assays:
# Fatty acid synthase [1] = target: T1, Fatty acid synthase (Homo sapiens, UniProt P49327); assay: FAS thioesterase domain inhibitors, dose response, biochemical, kinetic fluorescence intensity (AID 624326); type: functional;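 note: rate of fluorescence rise from hydrolysis of a fluorogenic O-methyl fluorescein ester substrate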
# Fatty acid synthase [2] = target: T1, Fatty acid synthase; assay: FAS thioesterase domain inhibitors, dose response, biochemical, endpoint fluorescence intensity, uHTS hits (AID 624327); type: functional;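 note: fluorescence from hydrolysis of an O-methyl fluorescein acyl ester substrate by the enzyme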
# Cytochrome P450 2D6 = Cytochrome P450 2D6 (Homo sapiens, UniProt P10635);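 note: CYP2D6 member of a cytochrome P450 panel assay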
# Cytochrome P450 2C9 = Cytochrome P450 2C9 (Homo sapiens, UniProt P11712)
# P388/ADR = assay: cells; type: functional; details: Mus musculus
# SN12K1 = assay: cells; type: functional; details: Homo sapiens
# P388 = assay: cells; type: functional; details: Mus musculus
# INS1 = assay: beta cell apoptosis inhibitors, cytokine rescue, dose response, luminescence, retest (AID 449756); type: functional, cell-based; details: Rattus norvegicus;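 note: cell death triggered by IL-1 beta plus TNF-alpha plus IFN-gamma mixture; protective hits raise ATP signal compared with cytokine alone wells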
# [3] = microbe, parasite or virus in culture; type: functional; details: Mycobacterium tuberculosis
# [4] = inhibitors of intracellular T. cruzi replication, confirmation, NIH3T3 host cells, beta-gal luminescence (AID 2044); type: functional, cell-based;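 note: intracellular parasites grown in NIH/3T3 mouse fibroblasts as host cells; luminescent beta-galactosidase reporter signal from transgenic T. cruzi replicating inside host cells; inhibitors lower the luminescence signal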
# [5] = cytotoxicity toward NIH3T3 fibroblasts, dose response, counter-screen, cell-based, ATP luminescence, mouse fibroblasts (AID 2010); type: functional;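 note: cells exposed to compound for about 90 hours before reading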
# cells [6] = type: functional, cell-based
# cells [7] = type: functional, cell-based; remark: listed apart in the source
# Cytochrome P450 2C19 = Cytochrome P450 2C19 (Homo sapiens, UniProt P33261); assay: Cytochrome panel assay with activity outcomes. Panel member name: p450-cyp2c19 Compounds with AC50 equal or less than 10 uM are considered active; type: functional
# Leucine aminopeptidase = target: T2, Leucine aminopeptidase (Plasmodium falciparum 3D7, UniProt Q8IL11); assay: P. falciparum M17LAP inhibitors, primary screen, biochemical, fluorogenic H-Leu-NHMec substrate, 1536-well (AID 1619); type: functional
# T2 sequence (Q8IL11 whole entry): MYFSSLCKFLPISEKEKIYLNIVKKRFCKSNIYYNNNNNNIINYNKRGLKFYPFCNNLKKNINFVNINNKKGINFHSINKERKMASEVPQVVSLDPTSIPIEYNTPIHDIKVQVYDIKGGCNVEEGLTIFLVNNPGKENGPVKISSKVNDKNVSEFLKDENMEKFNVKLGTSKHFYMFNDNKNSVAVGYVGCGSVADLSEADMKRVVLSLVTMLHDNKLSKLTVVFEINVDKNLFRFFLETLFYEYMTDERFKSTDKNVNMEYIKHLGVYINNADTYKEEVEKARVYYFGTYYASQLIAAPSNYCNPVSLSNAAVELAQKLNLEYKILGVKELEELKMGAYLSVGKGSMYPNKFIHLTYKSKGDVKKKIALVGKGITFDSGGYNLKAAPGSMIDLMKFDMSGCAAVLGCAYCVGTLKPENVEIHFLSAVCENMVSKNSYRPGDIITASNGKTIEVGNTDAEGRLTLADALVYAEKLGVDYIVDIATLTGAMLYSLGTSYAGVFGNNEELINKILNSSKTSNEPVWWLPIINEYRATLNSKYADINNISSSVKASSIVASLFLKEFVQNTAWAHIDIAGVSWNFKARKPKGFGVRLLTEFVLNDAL
# Aminopeptidase N = target: T3, Aminopeptidase N (Plasmodium falciparum FcB1/Columbia, UniProt O96935); assay: P. falciparum M1AAP inhibitors, biochemical, fluorogenic H-Leu-NHMec substrate, 1536-well (AID 1445); design: species or system Plasmodium falciparum 3D7, 3D7
# T3 sequence (O96935 whole entry): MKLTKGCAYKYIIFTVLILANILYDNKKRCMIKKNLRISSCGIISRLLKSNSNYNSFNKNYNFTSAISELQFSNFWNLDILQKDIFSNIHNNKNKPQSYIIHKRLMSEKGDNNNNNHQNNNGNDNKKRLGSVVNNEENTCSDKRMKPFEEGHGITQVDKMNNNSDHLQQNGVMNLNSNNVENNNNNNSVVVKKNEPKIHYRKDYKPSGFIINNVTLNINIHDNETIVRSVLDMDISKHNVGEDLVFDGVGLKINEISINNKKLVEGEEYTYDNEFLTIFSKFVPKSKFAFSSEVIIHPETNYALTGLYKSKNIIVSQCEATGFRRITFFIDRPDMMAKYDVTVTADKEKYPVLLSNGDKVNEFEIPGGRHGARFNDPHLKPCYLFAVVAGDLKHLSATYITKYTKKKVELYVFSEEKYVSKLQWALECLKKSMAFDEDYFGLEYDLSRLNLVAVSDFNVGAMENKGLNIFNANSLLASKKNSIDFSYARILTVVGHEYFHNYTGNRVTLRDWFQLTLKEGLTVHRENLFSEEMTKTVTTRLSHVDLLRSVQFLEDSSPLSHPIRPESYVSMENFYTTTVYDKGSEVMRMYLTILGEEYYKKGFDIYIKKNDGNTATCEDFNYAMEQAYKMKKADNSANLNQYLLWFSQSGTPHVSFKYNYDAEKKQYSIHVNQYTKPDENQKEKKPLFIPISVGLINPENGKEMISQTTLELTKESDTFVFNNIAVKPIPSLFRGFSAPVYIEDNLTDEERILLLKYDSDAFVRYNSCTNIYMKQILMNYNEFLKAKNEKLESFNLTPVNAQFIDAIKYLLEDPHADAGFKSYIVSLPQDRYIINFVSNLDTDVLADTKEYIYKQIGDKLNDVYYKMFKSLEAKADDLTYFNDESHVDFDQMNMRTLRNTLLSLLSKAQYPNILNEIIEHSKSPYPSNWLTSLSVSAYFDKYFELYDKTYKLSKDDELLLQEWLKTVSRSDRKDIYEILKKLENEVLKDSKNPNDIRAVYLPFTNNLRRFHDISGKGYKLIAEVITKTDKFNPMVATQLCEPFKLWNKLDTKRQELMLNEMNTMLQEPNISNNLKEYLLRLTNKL
# [8] = target: Heat shock protein HSP 90-alpha (Homo sapiens, UniProt P07900); type: functional, organism-based
# Cytochrome P450 3A4 = Cytochrome P450 3A4 (Homo sapiens, UniProt P08684);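 note: CYP3A4 tested as one member of a cytochrome P450 panel screen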
# Sequence of Cytochrome P450 3A4 (P08684 whole entry): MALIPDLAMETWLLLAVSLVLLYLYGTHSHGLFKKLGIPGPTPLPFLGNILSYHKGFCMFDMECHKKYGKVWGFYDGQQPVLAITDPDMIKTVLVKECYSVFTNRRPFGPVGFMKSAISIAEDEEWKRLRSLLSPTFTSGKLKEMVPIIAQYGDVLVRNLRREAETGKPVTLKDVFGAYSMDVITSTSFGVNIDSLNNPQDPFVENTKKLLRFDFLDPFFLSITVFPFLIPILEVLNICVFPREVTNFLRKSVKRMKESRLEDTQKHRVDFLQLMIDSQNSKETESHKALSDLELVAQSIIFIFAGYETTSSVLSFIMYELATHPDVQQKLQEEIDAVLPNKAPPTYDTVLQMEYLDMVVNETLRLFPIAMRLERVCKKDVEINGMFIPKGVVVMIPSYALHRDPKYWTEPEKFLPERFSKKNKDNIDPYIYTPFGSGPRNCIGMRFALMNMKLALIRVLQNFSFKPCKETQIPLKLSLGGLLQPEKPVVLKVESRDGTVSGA
# T1 sequence (P49327 whole entry, the tested form may be a part): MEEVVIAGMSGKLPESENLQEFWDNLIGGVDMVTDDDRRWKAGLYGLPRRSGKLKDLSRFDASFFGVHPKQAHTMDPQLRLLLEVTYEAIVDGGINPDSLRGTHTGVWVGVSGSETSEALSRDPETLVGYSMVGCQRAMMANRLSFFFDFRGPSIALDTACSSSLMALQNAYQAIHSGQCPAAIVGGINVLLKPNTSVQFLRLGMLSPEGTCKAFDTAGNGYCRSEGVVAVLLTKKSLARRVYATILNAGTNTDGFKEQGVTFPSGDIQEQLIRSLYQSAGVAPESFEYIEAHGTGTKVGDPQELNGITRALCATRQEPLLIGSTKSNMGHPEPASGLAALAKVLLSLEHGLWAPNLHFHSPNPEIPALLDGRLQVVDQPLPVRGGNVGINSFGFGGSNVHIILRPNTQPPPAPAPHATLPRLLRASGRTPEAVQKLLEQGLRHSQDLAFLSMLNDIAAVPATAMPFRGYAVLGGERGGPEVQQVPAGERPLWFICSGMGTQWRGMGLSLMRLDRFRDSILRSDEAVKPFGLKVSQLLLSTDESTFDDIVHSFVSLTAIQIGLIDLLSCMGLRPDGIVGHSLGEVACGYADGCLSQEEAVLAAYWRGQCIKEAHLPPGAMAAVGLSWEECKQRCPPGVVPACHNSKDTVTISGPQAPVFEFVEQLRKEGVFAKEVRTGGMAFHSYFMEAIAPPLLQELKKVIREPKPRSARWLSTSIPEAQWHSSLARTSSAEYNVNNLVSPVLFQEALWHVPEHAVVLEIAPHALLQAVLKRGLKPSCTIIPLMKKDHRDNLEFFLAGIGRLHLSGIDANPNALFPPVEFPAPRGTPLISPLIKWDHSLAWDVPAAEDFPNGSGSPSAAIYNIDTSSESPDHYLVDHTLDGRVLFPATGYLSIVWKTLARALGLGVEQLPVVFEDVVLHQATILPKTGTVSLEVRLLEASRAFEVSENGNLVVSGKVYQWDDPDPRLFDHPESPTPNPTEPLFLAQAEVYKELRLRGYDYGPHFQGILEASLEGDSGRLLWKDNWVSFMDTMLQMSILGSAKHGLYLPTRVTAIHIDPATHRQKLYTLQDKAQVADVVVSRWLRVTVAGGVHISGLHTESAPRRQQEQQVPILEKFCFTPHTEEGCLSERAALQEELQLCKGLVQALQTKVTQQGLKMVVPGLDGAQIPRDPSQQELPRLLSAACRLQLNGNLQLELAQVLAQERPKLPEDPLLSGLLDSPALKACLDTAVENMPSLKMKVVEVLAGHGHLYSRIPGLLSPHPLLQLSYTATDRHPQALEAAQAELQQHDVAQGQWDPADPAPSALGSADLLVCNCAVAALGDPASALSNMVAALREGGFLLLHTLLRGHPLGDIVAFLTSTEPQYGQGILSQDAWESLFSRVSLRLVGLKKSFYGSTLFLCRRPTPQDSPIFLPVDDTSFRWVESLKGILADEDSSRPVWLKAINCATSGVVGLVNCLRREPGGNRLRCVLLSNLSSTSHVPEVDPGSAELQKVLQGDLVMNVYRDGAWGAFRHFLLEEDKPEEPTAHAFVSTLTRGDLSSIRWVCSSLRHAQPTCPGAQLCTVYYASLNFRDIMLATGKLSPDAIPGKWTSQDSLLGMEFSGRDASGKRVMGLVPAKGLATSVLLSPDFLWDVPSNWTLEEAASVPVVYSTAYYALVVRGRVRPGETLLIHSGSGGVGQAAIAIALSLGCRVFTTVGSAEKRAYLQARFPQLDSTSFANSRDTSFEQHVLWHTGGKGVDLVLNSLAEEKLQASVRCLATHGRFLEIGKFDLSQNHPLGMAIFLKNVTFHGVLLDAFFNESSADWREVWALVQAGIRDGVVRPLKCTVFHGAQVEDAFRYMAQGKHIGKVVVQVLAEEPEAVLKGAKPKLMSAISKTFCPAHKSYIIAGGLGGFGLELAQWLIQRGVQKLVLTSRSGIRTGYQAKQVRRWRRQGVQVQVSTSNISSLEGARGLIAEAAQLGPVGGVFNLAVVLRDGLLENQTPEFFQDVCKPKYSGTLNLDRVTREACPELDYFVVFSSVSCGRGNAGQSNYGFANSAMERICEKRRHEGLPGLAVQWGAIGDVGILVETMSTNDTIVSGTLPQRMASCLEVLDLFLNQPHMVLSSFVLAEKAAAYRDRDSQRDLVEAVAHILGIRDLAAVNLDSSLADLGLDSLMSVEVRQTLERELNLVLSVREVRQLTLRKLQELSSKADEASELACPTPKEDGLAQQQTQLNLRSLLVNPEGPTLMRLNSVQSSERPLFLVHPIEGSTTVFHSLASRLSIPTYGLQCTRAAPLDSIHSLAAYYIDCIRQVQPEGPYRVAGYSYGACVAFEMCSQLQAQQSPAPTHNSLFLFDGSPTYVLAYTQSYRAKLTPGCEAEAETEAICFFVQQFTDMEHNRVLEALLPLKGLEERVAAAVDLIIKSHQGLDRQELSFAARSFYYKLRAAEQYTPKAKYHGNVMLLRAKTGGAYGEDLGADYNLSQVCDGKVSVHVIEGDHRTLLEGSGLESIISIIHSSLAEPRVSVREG
# Sequence of Cytochrome P450 2D6 (P10635 whole entry): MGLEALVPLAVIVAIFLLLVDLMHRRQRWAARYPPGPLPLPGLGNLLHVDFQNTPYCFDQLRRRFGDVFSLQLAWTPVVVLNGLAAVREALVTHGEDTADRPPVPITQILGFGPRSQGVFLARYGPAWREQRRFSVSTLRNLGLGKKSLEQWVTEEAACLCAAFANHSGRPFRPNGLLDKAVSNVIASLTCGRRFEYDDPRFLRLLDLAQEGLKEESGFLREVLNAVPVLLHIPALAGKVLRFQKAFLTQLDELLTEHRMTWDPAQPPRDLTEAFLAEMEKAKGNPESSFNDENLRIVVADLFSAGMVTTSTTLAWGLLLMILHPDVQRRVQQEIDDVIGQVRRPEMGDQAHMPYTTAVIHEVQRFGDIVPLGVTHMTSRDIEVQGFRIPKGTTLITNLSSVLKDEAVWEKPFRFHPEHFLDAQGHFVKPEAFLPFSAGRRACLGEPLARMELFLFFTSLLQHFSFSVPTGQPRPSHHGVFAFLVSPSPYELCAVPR
# Sequence of Cytochrome P450 2C9 (P11712 whole entry): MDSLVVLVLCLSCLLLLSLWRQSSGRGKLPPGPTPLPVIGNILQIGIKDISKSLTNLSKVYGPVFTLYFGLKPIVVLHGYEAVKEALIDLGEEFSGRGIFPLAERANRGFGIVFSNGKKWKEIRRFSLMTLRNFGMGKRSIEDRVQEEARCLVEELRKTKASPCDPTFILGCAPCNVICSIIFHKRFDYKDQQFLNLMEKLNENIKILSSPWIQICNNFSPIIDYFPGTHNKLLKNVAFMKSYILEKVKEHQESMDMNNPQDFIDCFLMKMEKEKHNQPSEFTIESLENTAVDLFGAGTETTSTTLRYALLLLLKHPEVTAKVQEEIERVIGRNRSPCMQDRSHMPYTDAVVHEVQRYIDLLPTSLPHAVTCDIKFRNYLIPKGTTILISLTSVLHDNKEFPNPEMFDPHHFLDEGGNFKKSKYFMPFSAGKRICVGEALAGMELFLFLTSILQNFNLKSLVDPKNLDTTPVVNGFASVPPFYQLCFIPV
# Sequence of Cytochrome P450 2C19 (P33261 whole entry): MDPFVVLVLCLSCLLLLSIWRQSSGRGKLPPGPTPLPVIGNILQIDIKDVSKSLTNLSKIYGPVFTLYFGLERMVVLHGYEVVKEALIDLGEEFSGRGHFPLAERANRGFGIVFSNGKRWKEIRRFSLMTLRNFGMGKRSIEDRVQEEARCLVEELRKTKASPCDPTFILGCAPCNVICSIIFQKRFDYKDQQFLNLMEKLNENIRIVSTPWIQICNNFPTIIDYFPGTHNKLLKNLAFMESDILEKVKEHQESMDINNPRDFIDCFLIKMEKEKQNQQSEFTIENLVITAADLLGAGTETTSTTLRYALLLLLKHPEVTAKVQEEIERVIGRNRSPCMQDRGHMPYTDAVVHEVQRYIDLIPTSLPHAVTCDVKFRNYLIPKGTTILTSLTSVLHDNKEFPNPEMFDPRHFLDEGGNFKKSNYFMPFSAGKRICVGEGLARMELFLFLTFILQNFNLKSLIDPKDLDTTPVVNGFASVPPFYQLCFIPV
compound,measurement,setting,value
COc1cccc(NC(=O)c2cc([N+](=O)[O-])ccc2NC(=O)CNCC2CCCO2)c1 (stereo not given),IC50,Fatty acid synthase [1],13.1 µM (active)
same,IC50,Fatty acid synthase [2],12.3 µM (active)
CCCc1cc2c(cc1NC(=O)c1ccccc1Cl)OCO2,AC50,Cytochrome P450 2D6,28.2 µM (inconclusive)
same,AC50,Cytochrome P450 2C9,inconclusive
CN1OC(=O)N(C)C1c1ccccc1 (stereo not given),GI50,P388/ADR,> 100 µM (inactive)
same,GI50,SN12K1,> 100 µM (inactive)
same,GI50,P388,> 100 µM (inactive)
CCn1cc(C(=O)NCc2ccc(C)cc2)c(=O)c2cc(S(=O)(=O)N(C)C)ccc21,IC50,Fatty acid synthase [1],11.1 µM (active)
same,IC50,Fatty acid synthase [2],11.4 µM (active)
COc1ccc(S(=O)(=O)N/N=C/C(=O)O)cc1,GI50,P388/ADR,212 µM (inactive)
same,GI50,SN12K1,360 µM (inactive)
same,GI50,P388,255 µM (inactive)
CN(C)C=O.O=C(COc1cccc(Cl)c1)Nc1nc(-c2ccc(S(=O)(=O)N3CCOCC3)cc2)cs1,IC50,Fatty acid synthase [1],5.53 µM (active)
same,IC50,Fatty acid synthase [2],4.49 µM (active)
Cc1ccc(-n2cccc2C(=S)N=P(N(C)C)(N(C)C)N(C)C)cc1,AC50,INS1,6.81 µM (active)
same,CC50,[3],> 40 µM (active)
same,EC50,[4],0.148 µM (active)
same,EC50,[5],> 30 µM (not active)
Cc1cccc(C2Nc3ccccc3C(=O)N2NC(=O)c2ccc([N+](=O)[O-])cc2)n1 (stereo not given),IC50,Fatty acid synthase [1],12.8 µM (active)
same,IC50,Fatty acid synthase [2],10.4 µM (active)
CCn1c(SCC(=O)Nc2ncc(C(F)(F)F)cc2Cl)nnc1-c1ccccc1,IC50,Fatty acid synthase [1],4.08 µM (active)
same,IC50,Fatty acid synthase [2],5.96 µM (active)
Oc1ccc(/C=N/NC(=S)NC2CC3CCC2C3)cc1 (stereo not given),EC50,cells [6],> 350 µM (not active)
same,EC50,cells [7],> 350 µM (not active)
CCCCOC(=O)NS(=O)(=O)c1sc(CC(C)C)cc1-c1ccc(Cn2c(CC)nc3c(C)cc(C)nc32)cc1,AC50,Cytochrome P450 2D6,15.8 µM (inconclusive)
same,CC50,[3],20.3 µM (active)
same,AC50,Cytochrome P450 2C19; read-out: AC50,15.8 µM (inconclusive)
CC(C)=CC(=O)OC1C2C(C)C(=O)OC2C(O)C(C)C2C=CC(=O)C21C (stereo not given),GI50,P388/ADR,0.615 µM (active)
same,GI50,SN12K1,2.39 µM (inactive)
same,GI50,P388,0.627 µM (active)
COc1cc(C2c3cc4c(cc3[C@@H](Nc3ccc(C#N)cc3)C3COC(=O)[C@H]23)OCO4)cc(OC)c1O (stereo not given in full),GI50,P388/ADR,0.352 µM (active)
same,GI50,SN12K1,0.0736 µM (active)
same,GI50,P388,0.00998 µM (active)
O=C(O)C1CC=CCC1C(=O)Nc1cccc(F)c1 (stereo not given),IC50,Leucine aminopeptidase,14.6 µM (active)
N#Cc1cc2nc(O)c(O)nc2cc1[N+](=O)[O-],IC50,Fatty acid synthase [1],14.8 µM (active)
same,IC50,Fatty acid synthase [2],19.6 µM (active)
c1ccc2c(c1)CCN(c1nc3cc4c(cc3s1)OCCO4)C2,CC50,[3],> 40 µM (active)
CNC(=O)OCc1nc(SC)n(C)c1COC(=O)NC,GI50,P388/ADR,147 µM (inactive)
same,GI50,SN12K1,115 µM (inactive)
same,GI50,P388,75 µM (inactive)
COc1ccc(Nc2nnc(SCC(=O)N3CCCC3)s2)cc1,IC50,Leucine aminopeptidase,10.1 µM (active)
Cn1cccc1/C=N/NC(=O)c1sc2ccccc2c1Cl,AC50,Cytochrome P450 2D6,10 µM (inconclusive)
same,AC50,Cytochrome P450 2C9,inconclusive
CC1=NNC(=O)C1CCC(=O)N/N=C/c1ccc(Cl)cc1 (stereo not given),IC50,Leucine aminopeptidase,52.6 µM (active)
O=C(O)c1ccc(/C=C/c2ccc3cccc(O)c3n2)cc1,IC50,Leucine aminopeptidase,55.5 µM (active)
same,IC50,Aminopeptidase N,13 µM (active)
CC(C)CCCCCCCCCCCCC(=O)NCC(=O)NC1C(C)OC(Nc2ncnc3c2ncn3C)C(O)C1O (stereo not given),GI50,P388/ADR,> 100 µM (inactive)
same,GI50,SN12K1,7.66 µM (inactive)
same,GI50,P388,6.03 µM (inactive)
O=C(CN1C(=O)C2C3CC(C(Br)C3Br)C2C1=O)N1CCOCC1 (stereo not given),IC50,Leucine aminopeptidase,47.5 µM (active)
CCCOc1ccc(C(=O)NC(=S)NCc2cccnc2)cc1,CC50,[3],> 40 µM (active)
COc1ccc2c(c1)OC[C@H]1[C@H]2N2C(=O)c3cc(OC)ccc3NC(=O)[C@@]2(C)[C@H]1c1ccccc1,AC50,[8],16.1 µM (active)
same,IC50,Fatty acid synthase [1],13.7 µM (active)
same,IC50,Fatty acid synthase [2],12.7 µM (active)
O=C(Cn1nc2ccccc2n1)N/N=C/c1cc(Cl)cc([N+](=O)[O-])c1O,IC50,Fatty acid synthase [1],6.5 µM (active)
same,IC50,Fatty acid synthase [2],8.31 µM (active)
same,IC50,Aminopeptidase N,45.2 µM (active)
CN1CCN(c2ccc3[nH]c(-c4ccc5[nH]c(-c6ccc(O)cc6)nc5c4)nc3c2)CC1,GI50,P388/ADR,53.1 µM (inactive)
same,GI50,SN12K1,27 µM (inactive)
same,GI50,P388,7.94 µM (inactive)
O=c1cc(CSc2ccccc2)[nH]c(=S)[nH]1,AC50,Cytochrome P450 3A4,28.2 µM (inconclusive)
same,IC50,Leucine aminopeptidase,12.5 µM (active)
same,AC50,Cytochrome P450 2C19,inconclusive
C/C=C(\C)c1cc(=O)c2c(C)cc3c(c2o1)C(=O)c1c(O)c(C2CC(C)(N(C)C)C(O)C(C)O2)cc(C2CC(N(C)C)C(O)C(C)O2)c1C3=O (stereo not given),GI50,P388/ADR,3.08 µM (inactive)
same,GI50,SN12K1,1.26 µM (inactive)
same,GI50,P388,0.964 µM (active)
O=C(NCCCN1CCN(c2ccccc2F)CC1)Nc1ccccc1[N+](=O)[O-],EC50,cells [6],> 350 µM (not active)
same,EC50,cells [7],> 350 µM (not active)
CCOC(=O)c1c(S(=O)(=O)N2CCC(C)CC2)c(C)n(C)c1C,EC50,cells [6],> 350 µM (not active)
same,EC50,cells [7],> 350 µM (not active)
Cc1ccc(CNc2ccc3c(c2)nc(C)n3C)cc1,EC50,cells [6],34.6 µM (active)
same,EC50,cells [7],> 350 µM (not active)
Cc1c(CNc2ccc(Cl)c(C(=O)NC(CC(=O)O)C(=O)O)c2)ccc2nc(N)nc(N)c12 (stereo not given),GI50,P388/ADR,0.049 µM (active)
same,GI50,SN12K1,0.043 µM (active)
same,GI50,P388,0.0339 µM (active)

# — ChEMBL document CHEMBL1201862, “PubChem BioAssay data set” (2004)
